{"source": "ChEMBL document CHEMBL2203024", "about": "“Synthesis of 6\"-triazole-substituted α-GalCer analogues as potent iNKT cell stimulating ligands” (Bioorg Med Chem, 2012)", "tested_on": "iNKT", "test": "Antigenic activity in mouse iNKT cells co-cultured with N38-2C12 cells assessed as potentiation of glycolipid loaded bone marrow dendritic cells-induced IL-2 secretion by ELISA", "assay_type": "functional, cell-based", "note": "Activity calls are given as the source filed them. The calls are words filed in the database; no cut-off is given here.", "data": [{"smiles": "CCCCCCCCCCCCCCCCCCCCCCCCCC(=O)N[C@@H](CO[C@H]1O[C@H](Cn2ccnn2)[C@H](O)[C@H](O)[C@H]1O)[C@H](O)[C@H](O)CCCCCCCCCCCCCC", "values": [{"measurement": "Activity", "value": "Active"}]}, {"smiles": "CCCCCCCCCCCCCCCCCCCCCCCCCC(=O)N[C@@H](CO[C@H]1O[C@H](Cn2cc(-c3ccccc3)nn2)[C@H](O)[C@H](O)[C@H]1O)[C@H](O)[C@H](O)CCCCCCCCCCCCCC", "values": [{"measurement": "Activity", "value": "Active"}]}, {"smiles": "CCCCCCCCCCCCCCCCCCCCCCCCCC(=O)N[C@@H](CO[C@H]1O[C@H](Cn2cc(CCc3ccccc3)nn2)[C@H](O)[C@H](O)[C@H]1O)[C@H](O)[C@H](O)CCCCCCCCCCCCCC", "values": [{"measurement": "Activity", "value": "Active"}]}, {"smiles": "CCCCCCCCCCCCCCCCCCCCCCCCCC(=O)N[C@@H](CO[C@H]1O[C@H](Cn2cc(CCCc3ccccc3)nn2)[C@H](O)[C@H](O)[C@H]1O)[C@H](O)[C@H](O)CCCCCCCCCCCCCC", "values": [{"measurement": "Activity", "value": "Active"}]}, {"smiles": "CCCCCCCCCCCCCCCCCCCCCCCCCC(=O)N[C@@H](CO[C@H]1O[C@H](Cn2cc(CCCC)nn2)[C@H](O)[C@H](O)[C@H]1O)[C@H](O)[C@H](O)CCCCCCCCCCCCCC", "values": [{"measurement": "Activity", "value": "Active"}]}, {"smiles": "CCCCCCCCCCCCCCCCCCCCCCCCCC(=O)N[C@@H](CO[C@H]1O[C@H](Cn2cc(Cc3ccccc3)nn2)[C@H](O)[C@H](O)[C@H]1O)[C@H](O)[C@H](O)CCCCCCCCCCCCCC", "values": [{"measurement": "Activity", "value": "Active"}]}]}
